We go through one compound from BindingDB's records for doi:10.1016/j.bmcl.2017.04.009 (Vanderbilt University School of Medicine, 2017).

Broadly, the IC50 is the concentration at which inhibition is half-maximal.

For the test, the target named is T1, Muscarinic acetylcholine receptor M4 (Homo sapiens, UniProt P08173).
T1 sequence (P08173 whole entry): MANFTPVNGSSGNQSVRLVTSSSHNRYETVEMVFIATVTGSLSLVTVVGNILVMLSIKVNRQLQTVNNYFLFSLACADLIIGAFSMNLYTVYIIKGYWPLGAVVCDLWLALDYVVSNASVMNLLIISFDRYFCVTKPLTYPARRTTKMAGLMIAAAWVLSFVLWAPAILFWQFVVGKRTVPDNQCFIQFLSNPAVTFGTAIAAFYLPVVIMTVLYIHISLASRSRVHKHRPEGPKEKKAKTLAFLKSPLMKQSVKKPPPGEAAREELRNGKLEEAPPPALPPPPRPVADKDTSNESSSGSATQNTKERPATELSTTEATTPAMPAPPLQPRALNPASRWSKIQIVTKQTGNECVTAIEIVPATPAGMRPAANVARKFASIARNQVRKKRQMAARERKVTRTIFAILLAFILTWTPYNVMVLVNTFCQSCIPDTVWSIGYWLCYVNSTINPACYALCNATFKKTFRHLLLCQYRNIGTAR
In words: Antagonist activity at recombinant human M4 receptor expressed in CHO cells co-expressing Gqi5 by calcium mobilization assay. For orientation: A change in cytosolic calcium serves as a functional read-out for many receptors and channels.

Turning to `O=C(C1CCN(c2cc(Oc3ccc(Cl)cc3F)ncn2)CC1)N1CCc2ccccc2C1`, the IC50 was 117 nM.
